These results are taken from patent US5264441A, “Disubstituted ureas and thioureas derivatives” (Farmitalia Carlo Erba S.r.l., priority 1991, dated 1993).

In assay [1] the target is T1, acyl CoA:cholesterol acyltransferase (ACAT-EC 2.3.1.26) (Oryctolagus cuniculus, UniProt A0A5F9CPP4).
T1 construct: microsomal preparations from atherosclerotic rabbit thoracic aorta; from tissue; host or cells: microsomes of atherosclerotic rabbit thoracic aorta
T1 sequence (A0A5F9CPP4 1-555): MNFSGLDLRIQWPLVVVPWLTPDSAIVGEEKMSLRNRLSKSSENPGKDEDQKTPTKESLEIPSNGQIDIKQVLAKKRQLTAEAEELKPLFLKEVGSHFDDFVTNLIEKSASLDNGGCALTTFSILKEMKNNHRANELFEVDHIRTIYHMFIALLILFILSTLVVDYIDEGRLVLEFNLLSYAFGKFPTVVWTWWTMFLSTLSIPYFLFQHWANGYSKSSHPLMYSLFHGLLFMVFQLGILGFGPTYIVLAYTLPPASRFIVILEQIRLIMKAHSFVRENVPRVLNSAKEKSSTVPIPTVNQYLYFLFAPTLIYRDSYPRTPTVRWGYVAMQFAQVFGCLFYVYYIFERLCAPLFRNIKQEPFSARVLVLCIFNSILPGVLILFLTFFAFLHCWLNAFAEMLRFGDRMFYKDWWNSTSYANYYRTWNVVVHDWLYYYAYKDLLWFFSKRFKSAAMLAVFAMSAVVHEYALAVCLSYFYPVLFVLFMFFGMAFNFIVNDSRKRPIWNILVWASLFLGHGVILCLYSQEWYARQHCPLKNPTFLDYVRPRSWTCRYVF
In words: Inhibition of ACAT activity in microsomal preparations from atherosclerotic rabbit thoracic aorta. It counts as biochemical. The conditions noted are these: microsomes from atherosclerotic rabbit thoracic aorta; read-out: IC50 values for the inhibition activity in microsomes from atherosclerotic rabbit thoracic aortae.

Assay [2] in a line: Liver cholesterol accumulation in albino mice fed a 1.5% cholesterol-enriched diet for seven hours. The following applies: acute oral dose of 10 mg/kg. It counts as in vivo.
A short description of assay [3]: Hypolipidaemic effect in New Zealand White rabbits fed a 1% cholesterol-enriched diet for 30 days. It counts as in vivo. The following applies: compound added to the diet; for ED50: Oryctolagus cuniculus, 720 h.
The nature of assay [4]: Hypolipidaemic activity in Sprague-Dawley rats fed a 1.5% cholesterol-enriched diet for a week. In kind it is in vivo. The following applies: for Blood Total Cholesterol, Treating, Mean ± SE / Blood Total Cholesterol, % Change: 1 mg/kg/day, rats fed […] cholesterol-enriched diet for a week; for Blood Total Cholesterol, Treating, Mean ± SE: n = 9, * p ≤ 0.01 (Dunnett's test); for Blood Total Cholesterol, % Change: treating vs control. How it is done:
Moreover, the compounds of the invention are useful as antidyslipidaemic agents, indeed they show a high activity in lowering total serum cholesterol and triglycerides. […] Table II exemplifies the results obtained by testing the hypolipidaemic activity of a representative group of compounds of the invention administered at the dose of 1 mg/kg/day to Sprague-Dawley rats fed 1.5% cholesterol-enriched diet for a week.
Hypocholesterolaemic activity of FCE compounds given at
1 mg/kg/day to rats fed 1.5% cholesterol-enriched diet

Test in assay [5]: as above
The following applies: Rattus norvegicus, 168 h, 1.5% cholesterol-enriched chow for a week, compound added to the diet. It counts as in vivo.

Setting [6] is: liver, read-out: ED50 for the cholesterol lowering effect in liver.
The mark [7] stands for this setting: plasma, read-out: ED50 for the cholesterol lowering effect in plasma.

With `CCOC(CNC(=O)Nc1c(C(C)C)cccc1C(C)C)(OCC)c1ccccc1` [FCE 27020, N-[2,6-bis(1-methylethyl)phenyl]-N'-(2,2-diethoxy-2-phenyl) ethylurea], the IC50 in assay [1] stood at 7.47 nM.
For `CC(C)c1cccc(C(C)C)c1NC(=O)NCC1(c2ccccc2)OC(C)C(C)O1` (stereo not drawn) [FCE 27050, N-[2,6-bis(1-methylethyl)phenyl]-N'-[(2RS,4RS,5RS)-4,5-dimethyl-2-phenyldioxolan-2-yl]methylurea], the “accumulation of cholesterol in the liver” value in assay [2] is “prevented in a significative fashion the accumulation of cholesterol in the liver”; in assay [3] it was “prevented the accumulation of cholesterol in the liver”. The ED50 in assay [3] (setting [6]) is 0.16 mg/kg; in assay [3] (setting [7]), 0.19 mg/kg; in assay [5] (setting [6]), 0.51 mg/kg; in assay [5] (setting [7]) it was 0.83 mg/kg. The hypolipidaemic effect result is reported as “potent hypolipidaemic effect” in assay [3] and “remarkable hypolipidaemic effect” in assay [4] (Sprague-Dawley rats, […] cholesterol-enriched chow for a week, compound added to the diet). In assay [4], the “Blood Total Cholesterol, Treating, Mean ± SE” value was 62 ± 5 mg/dL. Further, in assay [4], the “Blood Total Cholesterol, % Change” value is -60%.
Consider `CC(C)c1cccc(C(C)C)c1NC(=O)NCC1(C2CCCCC2)OCC(C)(C)CO1` [FCE 27356, N-[2,6-bis(1-methylethyl)phenyl]-N'-(2-cyclohexyl-5,5-dimethyl-1,3-dioxan-2-yl)methylurea], for which the IC50 in assay [1] worked out at 6.5 nM.
Turning to `CC(C)c1cccc(C(C)C)c1NC(=O)NCC1(C2CCCCC2)O[C@@H](C)[C@H](C)O1` [FCE 27480, N-[2,6-bis(1-methylethyl)phenyl]-N'-[(4S, 5S)-2-cyclohexyl-4,5-dimethyldioxolan-2-yl]methylurea], in assay [4], the “Blood Total Cholesterol, Treating, Mean ± SE” value came to 85 ± 9 mg/dL and the “Blood Total Cholesterol, % Change” value is recorded as -46%.
On the same counts, the results for `CC(C)c1cccc(C(C)C)c1NC(=O)NCC1(c2ccccc2)O[C@H](C)[C@@H](C)O1` [FCE 27529, N-[2,6-bis(1-methylethyl)phenyl]-N'-[(4R,5R)-4,5-dimethyl-2-phenyldioxolan-2-yl]methylurea] are 75 ± 4 mg/dL and -62%.
On the same counts, the results for `CC(C)c1cccc(C(C)C)c1NC(=O)NCC1(c2ccc(N(C)C)cc2)OCC(C)(C)CO1` [FCE 27607, N-[2,6-bis(1-methylethyl)phenyl]-N'-[2-(4-dimethylaminophenyl)-5,5-dimethyl-1,3-dioxan-2-yl]methylurea] are 110 ± 8 mg/dL and -48%.
Consider `CC(C)c1cccc(C(C)C)c1NC(=O)NCC1(C2CCCCC2)SCCS1` [FCE 27612, N-[2,6-bis(1-methylethyl)phenyl]-N'-(2-cyclohexyl-1,3-dithiolan-2-yl)methylurea], for which, in assay [1], the half-maximal inhibitory concentration (IC50) stood at 9.5 nM. Besides, in assay [4], the “Blood Total Cholesterol, Treating, Mean ± SE” value came out at 59 ± 7 mg/dL and the “Blood Total Cholesterol, % Change” value is -72%.

By IC50 is commonly meant the concentration that gives 50% inhibition.
